Laboratory results taken from PubChem BioAssay AID2060622 (Molecular Pharmacology Branch, DTP, NCI, 2025).

Tested on: 242566-281-R-J2-PDC complex spheroid viability
Assay: Anticancer human tumor 242566-281-R-J2-PDC patient-derived pancreatic carcinoma cell line growth inhibition [CLK]
Details: for IC50: curve of first compound; for viability, T/C: stronger effect = lower value; active = viability on the fitted dose curve at most 10% of control; inactive = the rest
From the text: A high-throughput screen of multi-cell type tumor spheroids was designed to identify active combinations of […] and targeted small molecules. Complex spheroids include a stromal component modeled by human endothelial cells (HUVEC) and fibroblasts modeled by human mesenchymal stem cells (MSCs). The concentration ranges selected for each drug and investigational agent were based upon clinically achievable concentrations if the clinical Cmax of the agent was known.
Compounds. The drugs and investigational agents: cirtuvivint (SM08502; NSC835563), CC-671 (NSC850746), vemurafenib (NSC761431), tapotoclax (NSC804041), sotorasib (NSC818433), adagrasib (NSC831453), MRTX-1133 (NSC836407), BAY2416964 (NSC825713), copanlisib (NSC816437), inavolisib (NSC800729), abemaciclib (NSC768073), osimertinib (NSC779217), entinostat (NSC756642), eltanexor (KPT-8602, NSC794443), venetoclax (NSC766270), ceralasertib (NSC777638), bortezomib (NSC756655), olaparib (NSC753686), talazoparib (NSC767125), alisertib (NSC759677), peposertib (NSC802822), gemcitabine (NSC613327), 5-fluorouracil (NSC19893), SN-38 (NSC673596), oxaliplatin (NSC266046), paclitaxel (NSC125973), and doxorubicin (NSC123127), were obtained from the National Cancer Institute (NCI) Developmental Therapeutics Program Chemical Repository. The FDA-approved anticancer drug set is available from the Developmental Therapeutics Program at https://dtp.cancer.gov/organization/dscb/obtaining/available plates.htm. […] The stock solutions were prepared in dimethyl sulfoxide (DMSO, Sigma-Aldrich, St. Louis, MO, cat. D2650), except for the platinum complexes which were prepared in saline (Quality Biological, Gaithersburg, MD, cat. 114-055-101), at 800-fold the tested concentration and stored at -70 degrees C prior to their use. All drugs and investigational agents were tested over a range starting from a high concentration at or near the clinical Cmax and decreasing in half-log increments. If the clinical Cmax for an agent had not been determined, the highest concentration tested was 10 microM.
Cell Culture. All cells were maintained in an incubator at 37 degrees C and 5% CO2 with 95% humidity. The PDC lines were cultured according to standard operating procedures established by the NCI PDMR. Briefly, all PDCs were thawed and cultured in Matrigel-coated flasks prepared with a working solution of 1X Ham's F-12 nutrient mix, without supplementation (Invitrogen, Waltham, MA, cat. 11765054), 100 U/mL penicillin-streptomycin (Invitrogen, cat. 15140122), and 2.5% Matrigel (Corning Inc., Corning, NY, cat. 354248) for the first three passages. The 947758-054-R-J2-PDC line was cultured in 6B/Colon 1A media, which includes advanced DMEM/F-12 (Thermo Fisher Scientific, cat. 12634028), 10 mM HEPES (Thermo Fisher Scientific, cat. 15630080), 1X GlutaMAX supplement (Thermo Fisher Scientific, cat. 35050061), 0.1 mg/mL primocin (InvivoGen, cat. ant-pm-2), 10% defined fetal bovine serum, heat inactivated (HyClone Laboratories Inc., cat. SH30070.03HI), 1.25 mM N-Acetyl-L-cysteine (Sigma-Aldrich, cat. A9165), 10 mM nicotinamide (Sigma-Aldrich, cat. N0636), 1X B-27 supplement (Thermo Fisher Scientific, cat. 17504044), 1X N-2 supplement (Thermo Fisher Scientific, cat. 17502048), and 10 microM Y-27632 dihydrochloride (Tocris Bioscience, cat. 1254). The 876862-298-R-J1-PDC was cultured in 6E media, which includes all 6B/Colon 1A media components plus 50% L-WRN conditioned media (ATCC, cat. CRL-3276), 50 ng/mL recombinant human EGF recombinant protein (hEGF; Thermo Fisher Scientific, cat. PHG0311), 10 ng/mL recombinant human fibroblast growth factor 10 (hGFG-10; PeproTech, cat. 100-26), 1 ng/mL recombinant human fibroblast growth factor 2 (hFGF-2; PeproTech, cat. 100-18B), and 1 µM prostaglandin E2 (PGE2; Tocris, cat. 2296). The 227483-062-R1-J1-PDC line was cultured in Panc media, containing all 6E components except hFGF-2, with the addition of 500 nM SB-431542 (Selleckchem, cat. S1067) and 10 nM gastrin (Tocris, cat. 3006). […]
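Also: spheroids exposed to compounds for 7 days before readout.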
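For viability, T/C in this document: 100% = DMSO vehicle control wells.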

CC(Nc1ccc2c(c1)OCCn1cc(N3C(=O)OCC3C(F)F)nc1-2)C(N)=O (configuration not stated) + CNC(=O)c1ccc(Nc2nc(OC3CCCC3)c3c(-c4ccc5nc(C)oc5c4)c[nH]c3n2)c(OC)c1
inactive: viability, T/C (second compound 0.0316 µM, first compound 0.0316 µM) 84.6% | viability, T/C (second compound 0.0316 µM, first compound 0.1 µM) 91.4% | viability, T/C (second compound 0.0316 µM, first compound 0.316 µM) 75.9% | viability, T/C (second compound 0.0316 µM, first compound 1 µM) 62.4% | viability, T/C (second compound 0.0316 µM, first compound 3.16 µM) 44.4% | viability, T/C (second compound 0.0316 µM, first compound 10 µM) 30.6% | viability, T/C (second compound 0.1 µM, first compound 0.0316 µM) 100% | viability, T/C (second compound 0.1 µM, first compound 0.1 µM) 96.5% | viability, T/C (second compound 0.1 µM, first compound 0.316 µM) 70.4% | viability, T/C (second compound 0.1 µM, first compound 1 µM) 62.2% | viability, T/C (second compound 0.1 µM, first compound 3.16 µM) 40.3% | viability, T/C (second compound 0.1 µM, first compound 10 µM) 28.2% | viability, T/C (second compound 0.316 µM, first compound 0.0316 µM) 82.3% | viability, T/C (second compound 0.316 µM, first compound 0.1 µM) 77.6% | viability, T/C (second compound 0.316 µM, first compound 0.316 µM) 59.6% | viability, T/C (second compound 0.316 µM, first compound 1 µM) 44% | viability, T/C (second compound 0.316 µM, first compound 3.16 µM) 32.8% | viability, T/C (second compound 0.316 µM, first compound 10 µM) 21.6% | viability, T/C (second compound 1 µM, first compound 0.0316 µM) 63.9% | viability, T/C (second compound 1 µM, first compound 0.1 µM) 47.2% | viability, T/C (second compound 1 µM, first compound 0.316 µM) 38.5% | viability, T/C (second compound 1 µM, first compound 1 µM) 26.8% | viability, T/C (second compound 1 µM, first compound 3.16 µM) 19.8% | viability, T/C (second compound 1 µM, first compound 10 µM) 14.2% | viability, T/C (second compound 3.16 µM, first compound 0.0316 µM) 44.4% | viability, T/C (second compound 3.16 µM, first compound 0.1 µM) 32.9% | viability, T/C (second compound 3.16 µM, first compound 0.316 µM) 27.5% | viability, T/C (second compound 3.16 µM, first compound 1 µM) 22.8% | viability, T/C (second compound 3.16 µM, first compound 3.16 µM) 15.7% | viability, T/C (second compound 3.16 µM, first compound 10 µM) 11.6% | viability, T/C (second compound 10 µM, first compound 0.0316 µM) 41% | viability, T/C (second compound 10 µM, first compound 0.1 µM) 33.6% | viability, T/C (second compound 10 µM, first compound 0.316 µM) 28.2% | viability, T/C (second compound 10 µM, first compound 1 µM) 20.3% | viability, T/C (second compound 10 µM, first compound 3.16 µM) 15.1% | viability, T/C (second compound 10 µM, first compound 10 µM) 10.6%
2140 nM: IC50 (second compound 0.0316 µM)
1770 nM: IC50 (second compound 0.1 µM)
92.4 nM: IC50 (second compound 1 µM)
< 31.6 nM: IC50 (second compound 3.16 µM) | IC50 (second compound 10 µM)
690 nM: IC50 (second compound 0.316 µM)
